Target: T1, Adenosine receptor A2b (Homo sapiens, UniProt P29275)
T1 sequence (P29275 whole entry): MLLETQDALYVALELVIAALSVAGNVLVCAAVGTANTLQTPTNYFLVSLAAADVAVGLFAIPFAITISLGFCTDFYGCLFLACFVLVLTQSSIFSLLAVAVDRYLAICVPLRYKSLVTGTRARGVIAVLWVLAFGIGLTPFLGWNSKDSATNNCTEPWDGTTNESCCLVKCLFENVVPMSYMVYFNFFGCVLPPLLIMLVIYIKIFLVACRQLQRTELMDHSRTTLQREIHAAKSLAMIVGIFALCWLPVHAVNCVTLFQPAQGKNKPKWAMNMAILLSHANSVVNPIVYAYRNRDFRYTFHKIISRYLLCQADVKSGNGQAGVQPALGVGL
Test: Percent displacement of [3H]DPCPX binding in human adenosine A2B receptor expressed in COS-7 cells

- Ki: 10 µM
Compound: COc1ccccc1NC(=O)Nc1nc(-c2cccnc2)nc2ccccc12 [VUF-5574]
